Laboratory results taken from ChEMBL document CHEMBL1154915, “Selection of inhibitory peptides for Aurora-A kinase from a phage-displayed library of helix-loop-helix peptides” (Bioorg Med Chem Lett, 2010).
Active and inactive are the calls of the source.

Columns and labels:
[1] = biological target: T1, Aurora kinase A (Homo sapiens) (UniProt O14965); assay: Inhibition of Aurora A at 100 uM by IMAP fluorescence polarization assay
T1 sequence (whole entry): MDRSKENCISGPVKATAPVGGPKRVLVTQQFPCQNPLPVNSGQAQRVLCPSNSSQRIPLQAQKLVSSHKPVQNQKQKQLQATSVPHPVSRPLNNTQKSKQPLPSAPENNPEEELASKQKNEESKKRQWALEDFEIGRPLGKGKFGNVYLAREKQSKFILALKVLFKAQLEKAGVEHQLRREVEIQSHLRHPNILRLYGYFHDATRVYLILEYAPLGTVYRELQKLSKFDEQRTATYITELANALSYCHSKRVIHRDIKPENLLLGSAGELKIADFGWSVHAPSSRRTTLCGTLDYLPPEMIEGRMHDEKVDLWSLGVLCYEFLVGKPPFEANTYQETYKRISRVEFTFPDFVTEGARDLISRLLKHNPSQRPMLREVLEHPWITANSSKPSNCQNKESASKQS

[2] = biological target: T1, Aurora kinase A (Homo sapiens); assay: Binding affinity to GST-tagged Aurora A after 1 hr by ELISA
[3] = biological target: T1, Aurora kinase A (Homo sapiens); assay: Inhibition of Aurora A at 10 uM by IMAP fluorescence polarization assay

| Compound | inhibition [1] | Activity [2] | inhibition [3] [%] |
| --- | --- | --- | --- |
| H-AELAALEAELAALEGVGEFSVSLLGKLAALKAKLAALKA-OH | inactive | Active |  |
| H-AELAALEAELAALEGRRVVVSFAWDGKLAALKAKLAALKA-OH | 35% | Active |  |
| CC(C)C[C@H](NC(=O)[C@H](C)NC(=O)[C@H](C)NC(=O)[C@H](CC(C)C)NC(=O)[C@H](CCC(=O)O)NC(=O)[C@H](C)NC(=O)[C@H](CCC(=O)O)NC(=O)[C@H](CC(C)C)NC(=O)[C@H](C)NC(=O)[C@H](C)NC(=O)[C@H](CC(C)C)NC(=O)[C@H](CCC(=O)O)NC(=O)[C@@H](C)N)C(=O)N[C@@H](CCC(=O)O)C(=O)NCC(=O)N[C@@H](CCCNC(=N)N)C(=O)N1CCC[C@H]1C(=O)N[C@@H](Cc1ccccc1)C(=O)N[C@@H](Cc1c[nH]c2ccccc12)C(=O)N[C@@H](CC(C)C)C(=O)N[C@@H](CC(=O)O)C(=O)N[C@@H](CCCNC(=N)N)C(=O)N[C@@H](CC(C)C)C(=O)N[C@@H](CC(C)C)C(=O)NCC(=O)N[C@@H](CCCCN)C(=O)N[C@@H](CC(C)C)C(=O)N[C@@H](C)C(=O)N[C@@H](C)C(=O)N[C@@H](CC(C)C)C(=O)N[C@@H](CCCCN)C(=O)N[C@@H](C)C(=O)N[C@@H](CCCCN)C(=O)N[C@@H](CC(C)C)C(=O)N[C@@H](C)C(=O)N[C@@H](C)C(=O)N[C@@H](CC(C)C)C(=O)N[C@@H](CCCCN)C(=O)N[C@@H](C)C(=O)O |  | Active |  |
| H-AELAALEAELAALEGRRVVVAFAWDKLAALKAKLAALKA-NH2 |  |  | 42 |
| CSCC[C@H](NC(=O)[C@@H]1CCCN1C(=O)[C@H](CCC(N)=O)NC(=O)[C@H](CO)NC(=O)CNC(=O)[C@H](Cc1c[nH]c2ccccc12)NC(=O)CNC(=O)[C@H](CCC(=O)O)NC(=O)[C@H](CC(C)C)NC(=O)[C@H](C)NC(=O)[C@H](C)NC(=O)[C@H](CC(C)C)NC(=O)[C@H](CCC(=O)O)NC(=O)[C@H](C)NC(=O)[C@H](CCC(=O)O)NC(=O)[C@H](CC(C)C)NC(=O)[C@H](C)NC(=O)[C@H](C)NC(=O)[C@H](CC(C)C)NC(=O)[C@H](CCC(=O)O)NC(=O)[C@@H](C)N)C(=O)N[C@@H](CC(=O)O)C(=O)N[C@@H](CO)C(=O)N[C@H](C(=O)NCC(=O)N[C@@H](CCCCN)C(=O)N[C@@H](CC(C)C)C(=O)N[C@@H](C)C(=O)N[C@@H](C)C(=O)N[C@@H](CC(C)C)C(=O)N[C@@H](CCCCN)C(=O)N[C@@H](C)C(=O)N[C@@H](CCCCN)C(=O)N[C@@H](CC(C)C)C(=O)N[C@@H](C)C(=O)N[C@@H](C)C(=O)N[C@@H](CC(C)C)C(=O)N[C@@H](CCCCN)C(=O)N[C@@H](C)C(=O)O)C(C)C |  | Active |  |
| H-AELAALEAELAALEGARSLVAQMTGKLAALKAKLAALKA-OH |  | Active |  |
| H-AELAALEAELAALEGSSERKLVLLGKLAALKAKLAALKA-OH | 17% | Active |  |

Further lines, results first:

| inhibition [1] | Activity [2] | inhibition [3] [%] | Compound |
| --- | --- | --- | --- |
| inactive |  |  | H-GRRVVVAFAWD-NH2 |
| inactive | Active |  | H-AELAALEAELAALEGARHFYVQSVGKLAALKAKLAALKA-OH |
| inactive | inactive |  | H-AELAALEAELAALEGGGGGGGKLAALKAKLAALKAY-NH2 |
| 20% | Active |  | H-AELAALEAELAALEGERRLIIFNSGKLAALKAKLAALKA-OH |
|  | Active |  | H-AELAALEAELAALEGKGTQMWWLLGKLAALKAKLAALKA-OH |
|  | Active |  | H-AELAALEAELAALEGSQDNARSLWGKLAALKAKLAALKA-OH |
|  | Active |  | H-AELAALEAELAALEGRSEDPVCSWGKLAALKAKLAALKA-OH |
|  | Active |  | H-AELAALEAELAALEGLEGKSMGFIGKLAALKAKLAALKA-OH |
|  | Active |  | CC(C)C[C@H](NC(=O)[C@H](C)NC(=O)[C@H](C)NC(=O)[C@H](CC(C)C)NC(=O)[C@H](CCC(=O)O)NC(=O)[C@H](C)NC(=O)[C@H](CCC(=O)O)NC(=O)[C@H](CC(C)C)NC(=O)[C@H](C)NC(=O)[C@H](C)NC(=O)[C@H](CC(C)C)NC(=O)[C@H](CCC(=O)O)NC(=O)[C@@H](C)N)C(=O)N[C@@H](CCC(=O)O)C(=O)NCC(=O)N[C@H](C(=O)N[C@@H](CC(C)C)C(=O)N[C@H](C(=O)N[C@H](C(=O)N[C@@H](CO)C(=O)N[C@@H](Cc1c[nH]c2ccccc12)C(=O)N[C@@H](CC(=O)O)C(=O)N1CCC[C@H]1C(=O)N[C@@H](Cc1c[nH]c2ccccc12)C(=O)NCC(=O)N[C@@H](CCCCN)C(=O)N[C@@H](CC(C)C)C(=O)N[C@@H](C)C(=O)N[C@@H](C)C(=O)N[C@@H](CC(C)C)C(=O)N[C@@H](CCCCN)C(=O)N[C@@H](C)C(=O)N[C@@H](CCCCN)C(=O)N[C@@H](CC(C)C)C(=O)N[C@@H](C)C(=O)N[C@@H](C)C(=O)N[C@@H](CC(C)C)C(=O)N[C@@H](CCCCN)C(=O)N[C@@H](C)C(=O)O)C(C)C)C(C)C)[C@H](C)O |
|  | Active |  | CC[C@H](C)[C@H](NC(=O)[C@H](CCCNC(=N)N)NC(=O)[C@H](CCCNC(=N)N)NC(=O)[C@H](CO)NC(=O)[C@H](C)NC(=O)CNC(=O)[C@H](CCC(=O)O)NC(=O)[C@H](CC(C)C)NC(=O)[C@H](C)NC(=O)[C@H](C)NC(=O)[C@H](CC(C)C)NC(=O)[C@H](CCC(=O)O)NC(=O)[C@H](C)NC(=O)[C@H](CCC(=O)O)NC(=O)[C@@H]1CCCN1C(=O)[C@H](C)NC(=O)[C@H](C)NC(=O)[C@H](CC(C)C)NC(=O)[C@H](CCC(=O)O)NC(=O)[C@@H](C)N)C(=O)N[C@@H](CS)C(=O)N[C@@H](CS)C(=O)N[C@@H](CO)C(=O)N[C@@H](Cc1c[nH]c2ccccc12)C(=O)NCC(=O)N[C@@H](CCCCN)C(=O)N[C@@H](CC(C)C)C(=O)N[C@@H](C)C(=O)N[C@@H](C)C(=O)N[C@@H](CC(C)C)C(=O)N[C@@H](CCCCN)C(=O)N[C@@H](C)C(=O)N[C@@H](CCCCN)C(=O)N[C@@H](CC(C)C)C(=O)N[C@@H](C)C(=O)N[C@@H](C)C(=O)N[C@@H](CC(C)C)C(=O)N[C@@H](CCCCN)C(=O)N[C@@H](C)C(=O)O |
|  | Active |  | H-AELAALEAELAALEGYEGQFMWLIGKLAALKAKLAALKA-OH |
